# Laboratory results: article PMC11438102, “Modulation of cannabinoid receptor 2 alters neuroinflammation and reduces formation of alpha-synuclein aggregates in a rat model of nigral synucleinopathy” (Journal of Neuroinflammation, 2024)
# Columns and labels:
# [1] = type: in vivo; details: 6 mg/kg i.p. daily, ~2 h post-dose
# Protocol: One week after surgery, animals were randomly selected to receive daily systemic injections of either SMM-189 (intraperitoneal (i.p.), 6 mg/kg, n = 12) or vehicle (i.p., n = 12) and followed for 8 weeks (Figs. 1; n = 2 rats per group were removed due to poor nigral targeting). […] Plasma was also collected at baseline, 4 and 8 weeks post-AAV-hAsyn injections and CSF collected prior to perfusion to measure levels of SMM-189.
# Blood was collected from the tail vein at baseline and every 4 weeks post-AAV (~ 2 h post-treatment injection) for plasma to measure SMM-189 levels in low and high cohorts and for PBMCs to immunophenotype circulating immune cells in the high cohort animals. […] Tails were cleaned with ethanol and approximately 400μL of blood drawn from the lateral tail vein using a low dead space 25ga needle and syringe and blood immediately placed into an EDTA tube.
# CSF was collected at endpoint from low cohort animals. […] A sterile pulled micropipettes attached to tubing and a syringe punctured into the cisterna magna and clean CSF was aspirated and collected in a 0.2mL Eppendorf and stored at -80°C.
# A total of 50 µL aliquots of plasma or CSF were prepared by protein precipitation with 100 µL acetonitrile (spiked with the internal standard d^5-SMM-189) followed by centrifugation at 10,000g for 10 min at 4°C. Chromatographic separation of the supernatant was performed using a Zorbax SB-C18 3.5 μm 4.6 × 150 mm and a Shimadzu HPLC Nexera XR with Solvent Delivery Module LC-20ADXR, CTO-20AC prominence column oven (temperature 40 °C), a DGU-20A5R Degassing Unit, and a SIL-20ACXR autosampler. The aqueous mobile phase (A) was 95% water and 5% acetonitrile (B) was 100% acetonitrile.
# [2] = tested on: brain immune cells; assay: Multicolor flow cytometry of brain immune cells (high cohort); type: in vivo, rat
# Protocol: An additional cohort of rats (termed “high cohort”) was evaluated to determine effects of SMM-189 on immune cell populations in the brain, resident or infiltrating, and the periphery as measured by flow cytometry (Fig. 1). To ensure infiltrating peripheral immune cells, rats were stereotaxically injected with a higher titer of AAV2/5-human WT Asyn (4.6 × 10^12 vg/mL) and underwent an identical drug treatment timeline with animals sacrificed at 4 (SMM-189: n = 5; vehicle: n = 6) and 8 weeks (SMM-189: n = 7; vehicle: n = 7). At sacrifice, animals were deeply anesthetized with euthasol (i.p., 150 mg/kg) and rapid decapitation performed using a sharp guillotine. Brains were collected at endpoints, and brain immune cells isolated and evaluated using multicolor flow cytometry. Additionally, blood was collected at baseline, 4 and 8 weeks (SMM-189: n = 13; vehicle: n = 13) after stereotaxic surgery for PBMCs isolation to immunophenotype using flow cytometry and for plasma evaluation of SMM-189.
# Brains were collected from animals in the high cohort at either 4 or 8 weeks after AAV2/5-human WT Asyn and brain immune cells were isolated from individual hemispheres as previously described. Hemispheres were finely cut in RPMI 1640 media (Gibco Cat#11875-093) with a scalpel blade and enzymatically dissociated with collagenase VIII (1.4U/mL; Sigma Cat#C2139) and DNAse1 (1 mg/mL; Sigma Cat#DN25) in 37°C for 15 min. Enzymes were neutralized with 10%FBS (heat inactivated, Atlanta Biologicals Cat#S11150) in RPMI 1640 complete media and centrifuged 400g at room temperature. Tissue was resuspended in 1x HBSS and mechanically dissociated using a fire-polished Pasteur pipette until a cell suspension was generated. The suspension was passed through a 70µM cell strainer and strainers rinsed twice with 1x HBSS. To remove myelin, the strained suspension was centrifuged at 300g at 4 °C for 5 min and resuspended in 37% percoll and layered between 70% and 30% percoll gradients. The samples were centrifuged at 400g for 30 min at room temperature with the brake disabled. The top myelin layer was aspirated and demyelinated immune cells were collected from the 37% and 70% percoll interface with a pipette and washed with 1x HBSS twice, resuspended in PBS and placed in a 96-well v-bottom plate for flow cytometry staining.
# Peripheral and central immune cell staining was performed similarly as previously published protocols. In brief, immune cells were washed and resuspended in PBS, then incubated for 30 min at room temperature in LIVE/DEAD Fixable Red Dead cell stain (ThermoFisher Scientific Cat#L23102; 1:2000). Following two washes in PBS, Fc receptors were blocked with anti-rat CD32 Fc block diluted 1:100 in FACS buffer (1mM EDTA and 0.1% sodium azide in PBS) for 15 min at 4°C. PBMCs were stained for separate myeloid and lymphoid panels and brain immune cells stained with an antibody panel to identify microglia, monocytes and lymphocytes (Table S1-S3). Fluorophore conjugated antibodies diluted with FACS buffer were incubated at 4 °C for 20 min. Cells stained for surface myeloid markers were fixed in 1% PFA for 25 min and washed in FACS.
# PBMCs stained with lymphoid panel were further probed intracellularly for transcriptional marker Foxp3 to label […] T cells. […] Then washed and resuspended in FACs buffer. All samples had 10uL of AccuCheck Counting beads (ThermoFisher Cat#PCB100) added to final suspension and cells were run on a LSRII Instrument (BD Biosciences, Franklin Lakes, NJ) with FACSDiva software (BD Biosciences). Results were analyzed using FlowJo 10.8.1 software and brain immune populations of monocytes (classical and non-classical), lymphocytes (CD4 + and CD8+) or microglia and PBMC populations defined by specific strategies (Figure S1-S3). […]
# [3] = 4 weeks, high cohort, treatment effect vs vehicle
# [4] = 8 weeks, high cohort, treatment effect
# [5] = 8 weeks, high cohort, vs control
# [6] = 8 weeks, high cohort, vs vehicle
structure (smiles),measurement,setting,value
O=C(c1ccccc1)c1cc(O)c(-c2cc(Cl)cc(Cl)c2)c(O)c1 [SMM-189],SMM-189 plasma levels compared to vehicle,"[1]; rat high cohort, 4 and 8 weeks",increased
same,level of plasma SMM-189 compared to vehicle-treated rats,"[1]; rat low cohort, 4 and 8 weeks",Significant increases
same,"Levels of SMM-189 in the CSF, average ± SEM","[1]; rat low cohort, endpoint",0.44 ± 0.22 ng/mL
same,CD3+ lymphocytes parent population in brain,"[2]; 4 weeks, high cohort",No CD3 + lymphocytes parent population differences
same,CD8 T cell frequencies in brain,"[2]; 4 weeks, high cohort",not significantly different
same,MHCII MFI on microglia,"[2]; 4 weeks, high cohort",no changes
same,classical or non-classical monocyte subset frequencies in brain,"[2]; 4 weeks, high cohort",no treatment differences
same,frequency of microglia,"[2]; 4 weeks, high cohort",no difference
same,frequencies of CD4+ T cells in brain,"[2]; 4 weeks, high cohort, treatment effect",overall reduction
same,frequency of CD45hiCD11b myeloid/monocytes in brain,[2]; [3],reduced
same,frequency of CD163+ macrophages in brain,[2]; [3],reduced
same,MFI of CD11b on microglia,"[2]; 4 weeks, unlesioned hemispheres, vs control",reduced
same,intensity of MHCII on microglia,"[2]; 8 weeks, high cohort",no different
same,microglial MFI of CD11b,[2]; [4],elevated
same,microglial MFI of CD172a,[2]; [4],elevated
same,brain population frequency of lymphocytes (CD45+CD11b-),[2]; [5],did not affect
same,brain population frequency of macrophages (CD11b+CD163+),[2]; [5],did not affect
same,brain population frequency of microglia (CD45loCD11b+),[2]; [5],did not affect
same,brain population frequency of monocytes (CD45hiCD11b+),[2]; [5],did not affect
same,CD4+ lymphocytes in brain,[2]; [6],increased
same,CD8+ lymphocytes in brain,[2]; [6],decreased
same,frequency of MHCII+ classical (CD43-) monocytes in brain,"[2]; 8 weeks, lesioned hemispheres, vs vehicle",elevated
